Data published in patent US20260053921A1, “A MULTIPLEXED RNA REGULATION PLATFORM FOR PRIMARY IMMUNE CELL ENGINEERING” (The Board of Trustees of the Leland Stanford Junior …, priority 2022, published 2026).

Experiments:
CD46 = test: Cycloheximide flow cytometric chase assay of CD46 protein degradation; type: cell-based; conditions: primary human T cells
transgenic GFP reporter = test: crRNA-guided knockdown of a transgenic GFP reporter in primary human T cells; type: cell-based; conditions: lentivirally-integrated

| Molecule | CD46 expression after CHX addition (CD46) | functional activity: knockdown of GFP reporter (transgenic GFP reporter) |
| --- | --- | --- |
| C[C@@H]1C[C@@H]([C@H](O)CC2CC(=O)NC(=O)C2)C(=O)[C@@H](C)C1 [CHX, cycloheximide] | did not reach half-maximal expression prior to T cell apoptosis |  |
| RfxCas13d: Ruminococcus flavefaciens Cas13d, SEQ ID NO: 1 (protein) MIEKKKSFAKGMGVKSTLVSGSKVYMTTFAEGSDARLEKIVEGDSIRSVNEGEAFSAEMADKNAGYKIGNAKFSHPKGYAVVANNPLYTGPVQQDMLGLKETLEKRYFGESADGNDNICIQVIHNILDIEKILAEYITNAAYAVNNISGLDKDIIGFGKFSTVYTYDEFKDPEHHRAAFNNNDKLINAIKAQYDEFDNFLDNPRLGYFGQAFFSKEGRNYIINYGNECYDILALLSGLRHWVVHNNEEESRISRTWLYNLDKNLDNEYISTLNYLYDRITNELTNSFSKNSAANVNYIAETLGINPAEFAEQYFRFSIMKEQKNLGFNITKLREVMLDRKDMSEIRKNHKVFDSIRTKVYTMMDFVIYRYYIEEDAKVAAANKSLPDNEKSLSEKDIFVINLRGSFNDDQKDALYYDEANRIWRKLENIMHNIKEFRGNKTREYKKKDAPRLPRILPAGRDVSAFSKLMYALTMFLDGKEINDLLTTLINKFDNIQSFLKVMPLIGVNAKFVEEYAFFKDSAKIADELRLIKSFARMGEPIADARRAMYIDAIRILGTNLSYDELKALADTFSLDENGNKLKKGKHGMRNFIINNVISNKRFHYLIRYGDPAHLHEIAKNEAVVKFVLGRIADIQKKQGQNGKNQIDRYYETCIGKDKGKSVSEKVDALTKIITGMNYDQFDKKRSVIEDTGRENAEREKFKKIISLYLTVIYHILKNIVNINARYVIGFHCVERDAQLYKEKGYDINLKKLEEKGFSSVTKLCAGIDETAPDKRKDVEKEMAERAKESIDSLESANPKLYANYIKYSDEKKAEEFTRQINREKAKTALNAYLRNTKWNVIIREDLLRIDNKTCTLFRNKAVHLEVARYVHAYINDIAEVNSYFQLYHYIMQRIIMNERYEKSSGKVSEYFDAVNDEKKYNDRLLKLLCVPFGYCIPRFKNLSIEALFDRNEAAKFDKEKKKVSGNS |  | confirmed the functional activity |
